Data taken from patent US20210252159A1, “CONJUGATES OF CARTILAGE-HOMING PEPTIDES” (priority 2018, published 2021).
Like-named read-outs stand apart in the source and are kept apart here.

What was measured:
CIA rats [1] = system: CIA rats
Method: Arthritis was induced in 9-week-old female Lewis rats (Envigo or Charles River Laboratories) by intradermal injection while anesthetized of 400 ug bovine type II collagen (Chondrex Inc, Redmond Wash.) in 2 adjacent 200 ul (1 mg/ml) doses on day 0. Collagen is prepared for injection by dissolving at 2 mg/ml in 0.01N glacial acetic acid in sterile water and rocking at 4° C. overnight then emulsifying in Freund's incomplete adjuvant (IFA, Sigma Aldrich). To emulsify, equal volumes of collagen solution and IFA are drawn up into separate syringes, which are joined by a 3-way stopcock. While on ice, the collagen and IFA are mixed by pressing between the two syringes rapidly for 10 minutes. Quality of the emulsification is tested after 10 minutes of mixing by dropping a small amount of mixture in water. A properly emulsified solution will remain as a discrete droplet and not disperse in the water. On day 7, rats are challenged with a second intradermal injection of 100 ug of collagen in 100 ul, 1 mg/ml, collagen in IFA solution prepared fresh. Body weight and ankle diameter measurements are recorded daily from day 7 through the end of the study. Ankle diameter was measure by a single researcher using a Fowler Digitrix 2 micrometer. Three measurements of each ankle were taken of the lateral dimension at the tarsus of lightly anesthetized rats. The reported ankle diameter measurement is the mean of the three measurements.
Arthritis was induced as described in four cohorts of 9-week-old female Lewis rats. Rats were randomly placed in treatment groups, balancing compound and dose groups across cohorts. […] Rats were dosed by tail vein injection on days 11 and 12 and euthanized on day 13 by CO2 asphyxiation. Immediately after cessation of respiratory movement, blood was collected by cardiac puncture, synovial fluid was collected from both knees, one hind limb was fixed in formalin and the alternate ankle was frozen on dry ice. Thymus, spleen, liver, and kidney weights were recorded.
CIA Response study design.
The aim of the study was to test the 4 conjugates with various linkers at two different doses in vivo in CIA rats to assess the following: ability to deliver sufficient dexamethasone to the joint to show functionality and potential therapeutic effect in the disease model.
CIA was induced in female Lewis rats (as described above, see EXAMPLE 21). Body weight and ankle joint diameters were measured on day 0 and then daily from day 7 until euthanasia. […] At euthanasia, synovial fluid was collected from both knees, one hind limb was fixed in formalin and the alternate ankle was frozen on dry ice. Thymus, spleen, liver, and kidney weights were recorded. Blood samples were submitted for CBC/Chemistry analysis, and the remaining plasma was frozen.

[2] = IL-1β challenge rat model, dose-ranging study: CBC, organ weights, tolerability; format: in vivo, rats
Method: IL-6 was measured in knee lavage fluid using a Luminex assay and levels were normalized to total protein in the lavage fluid (FIG. 24). Assessment of the PD inflammatory marker IL-6 in the knee joints of rats challenged with IL-1β was performed. Terminal synovial fluid was collected from all animals and analyzed by Luminex 200 for IL-6 cytokine concentrations using EMD Milliplex MAP Rat Cytokine/Chemokine Magnetic Panel ([…]-65K). […] Doses are listed as nmol/kg The masses of these doses are given below in TABLE 16. Two hours and forty-five minutes (i.e., 2.75 hrs) after administration of the test agents, animals were gently heated and blood was drawn from the tail vein for CBC analysis. Animals were then anesthetized with inhaled isoflurane and injected with 30 ng of IL-1β into the right knee (except for no IL-1β group). Four hours after administration of IL-1β (seven hours after administration of test agent) the animals were euthanized. Blood was drawn for a second CBC analysis and the right knee was lavaged for detection of IL-6 in the lavage fluid using a Luminex assay. Thymus and spleen were harvested and their organ weights determined.
In the same animals for which IL-6 secretion was measured, CBC data (e.g., lymphocyte counts) were also analyzed (FIG. 25) at an early time-point, 2.75 hrs post administration of the test article (FIG. 25A), and at euthanasia 7 hrs post administration (FIG. 25B). All treatments were administered as described above for the measurement of IL-6 secretion.
All treatments and test articles were administered as described above, except for an additional treatment group that received 510 nmol/kg of the peptide-drug conjugate peptide(SEQ ID NO: 105)-DMA-dCIC.

IL-6 = conditions: 30 or 3 μg, 4 h
Method: After 4 h, IL-6 levels in synovial fluid of the same knee were measured by Luminex and normalized to protein content of the knee lavage.

[3] = Systemic markers for glucocorticoid exposure in normal rats; format: in vivo; conditions: normal female Lewis rats
Method: In order to evaluate markers of systemic dexamethasone exposure in normal rats, time points were selected to simulate drug administration for studies (e.g., dosing on days 10 and 11, euthanize on day 12 or dosing on days 11-14 and euthanize on day 14). […] Rats were euthanized 24 hours after the second dose, or 5 hours after the fourth dose. Body weight was measured daily. At euthanasia, liver, spleen, thymus, and kidney weights were recorded and blood was collected for CBC and serum chemistry analysis. To establish the CIA model, female Lewis rats were inoculated with an intradermal injection of bovine collagen II on day 0 and a challenge dose was administered on day 7. Ankle and knee joint diameters were measured daily. Rats were euthanized on day 10, day 12 and day 14 at which time liver, spleen, thymus, and kidney weights were recorded and blood was collected for complete blood count (CBC)/blood chemistry analysis.

CIA rats [4] = format: in vivo; conditions: 0.2 mg/kg on study day 0 and day 1
Method: A study was conducted in CIA rats to address the following: 1) functionality and duration of effect for peptide(SEQ ID NO: 105)-carbamate-Dex at 0.2 mg/kg as compared to Dex alone at the same dose; 2) functionality and duration of effect for peptide(SEQ ID NO: 105)-DMA-Dex at 0.05 mg/kg as compared to Dex alone at the same dose; 3) systemic markers of Dex exposure in rats treated with each PDC and Dex at their respective doses (FIG. 16B-FIG. 16G).
CIA was induced as described above in EXAMPLE 21. Rats were enrolled in the study following onset of arthritis in at least one ankle and randomly assigned into one of five treatment groups (vehicle; peptide-carbamate 0.2 mg/kg; Dex 0.2 mg/kg; peptide-DMA conjugate 0.05 mg/kg; Dex 0.05 mg/kg) with 5 rats per group. Treatment was administered on study day 0 and study day 1 and rats were euthanized on study day 7. The primary read-out in this cohort was change in ankle diameter during and after treatment, as a measure of functionality and duration of effect. […] The primary read-out for this cohort was measures of systemic exposure to Dex which included thymus weight, spleen weight, total white blood cell counts, lymphocyte counts, and change in body weight.

[5] = 1 mg/kg/day for 2 days and 4 days
[6] = 1 mg/kg/day for 2 days or 4 days, vs vehicle and CIA rats

Dexamethasone sodium phosphate [DexSP]
spleen weight (CIA rats [1]; 0.2 mg/kg and 0.5 mg/kg dose): reduction | thymus weight (CIA rats [1]; 0.2 mg/kg and 0.5 mg/kg dose): reduction | total body weight (CIA rats [1]; 0.2 mg/kg and 0.5 mg/kg dose): reduction | change in median ankle diameter between day 11 and day 13 as compared to vehicle (CIA rats [1]; 0.2 mg/kg dose): did not reach statistical significance | reduction in thymus weight as compared to vehicle (CIA rats [1]; 0.2 mg/kg dose groups): statistically significant | monocytes (CBC) ([2]; 2.75 hours post-treatment): dose dependent decrease | Lymphocyte counts as compared to vehicle control ([2]; 2.75 hrs post administration, Dex both doses, dCIC IA or IV): substantial reduction in lymphocyte counts | Lymphocyte counts at euthanasia ([2]; 7 hours post administration, all dose levels): lower at 7 hours as compared to 2.75 hours | IL-6 secretion in synovial fluid (IL-6; administered IA (co-injected with IL-1b)): no decrease | IL-6 secretion in synovial fluid (IL-6; administered IV): some decrease | other liver enzymes ([3]; 1 mg/kg/day): no significant changes | red blood cell (RBC) count, hematocrit, neutrophil, monocyte or eosinophil counts ([3]; 1 mg/kg/day): no significant changes | absolute lymphocyte count [3, 5]: decreased | total white blood cell (WBC) count [3, 5]: decreased | Body weight ([3]; 1 mg/kg/day for 2 days or 4 days): declined | spleen weight [3, 6]: significantly decreased | thymus weight [3, 6]: significantly decreased | Nucleated RBCs ([3]; 4 doses of 1 mg/kg/day): detected in four of the five rats | ankle inflammation / ankle diameter as compared to vehicle (CIA rats [4]): highly effective in reducing ankle diameter to baseline levels
